In patent publication US20250101356A1, “CONTAINER FOR PRODUCING TENSION-APPLIED THREE-DIMENSIONAL ARTIFICIAL SKIN AND PRODUCTION METHOD THEREOF” (RIKEN, priority 2022, published 2025):

Key:
Type in all cases: cell-based, human
[1] = tested on: hyaluronan synthase (HAS3) gene expression; assay: HAS3 gene expression in tension-applied three-dimensional artificial skin (real-time PCR); conditions: artificial skin of the present invention; 10 μM ATRA solution on gauze on epidermis for 1 hour, then 5 hours culture (6 hours after addition)
Experimental: The artificial skin was such that, on the 6th day of culture, this was replaced with a medium for assay use (Dulbecco's Modified Eagle's Medium containing 1 μM hydrocortisone, 5 μg/mL insulin, and 10% fetal bovine serum). On the 8th day of culture, gauze that had been impregnated with 0.2% HPC solution or 10 μM ATRA solution was placed on the surface of the epidermis, and this was cultured for 1 hour in a 5% CO2 incubator at 37° C. After 1 hour, the gauze was removed, and this was further cultured for 5 hours in a 5% CO2 incubator at 37° C. Following culture of the artificial skin for 6 hours, the artificial skin was removed from the container in such fashion as to not cause the epidermal tissue to be delaminated therefrom, and a razor was used to cut this in half. After using […] from an RNeasy Plus Mini Kit (manufactured by Qiagen) to dissolve tissue by pulverizing with beads, phenol chloroform was used to remove protein therefrom, following which column purification was carried out as directed by the RNeasy Plus Mini Kit protocol to obtain total RNA.
SuperScript VILO Master Mix (manufactured by Invitrogen) was used as directed by the attached manual to carry out synthesis of cDNA from the purified total RNA. […]

[2] = tested on: elastin (ELN) gene expression; assay: Elastin gene expression in tension-applied three-dimensional artificial skin (real-time PCR); conditions: artificial skins prepared using means of the present invention; 10 ng/mL TGF-β in assay medium, 48 hours
Experimental: (§1) The artificial skin was such that, on the 6th day of culture, this was replaced with a medium for assay use (Dulbecco's Modified Eagle's Medium containing 1 μM hydrocortisone, 5 μg/mL insulin, and 10% fetal bovine serum). […] After using RNT solution from an RNeasy Plus Mini Kit (manufactured by Qiagen) to dissolve tissue by pulverizing with beads, phenol chloroform was used to remove protein therefrom, following which column purification was carried out as directed by the RNeasy Plus Mini Kit protocol to obtain total RNA.
(§2) SuperScript VILO Master Mix (manufactured by Invitrogen) was used as directed by the attached manual to carry out synthesis of cDNA from the purified total RNA. The synthesized cDNA was mixed with SYBR Premix Ex Taq (manufactured by Takara) and primer mix (a mixture of forward and reverse primers), 12.5 μL of reaction solution was prepared in each well of a 96-well plate for PCR use, and a QuantStudio 12K Flex (Applied Biosystems) was used to carry out real-time PCR. The real-time PCR reaction was such that 40 cycles comprising 95° C. for 30 seconds for initial denaturation, and 95° C. for 5 seconds and 60° C. for 31 seconds for the PCR reaction, were carried out. […]

[3] = tested on: collagen 1A1 (COL1A1) gene expression; assay: Collagen 1A1 gene expression in tension-applied three-dimensional artificial skin (real-time PCR); conditions: artificial skins prepared using means of the present invention; 10 ng/mL TGF-β in assay medium, 48 hours
Experimental: as §1, §2

## CC1=C(/C=C/C(C)=C/C=C/C(C)=C/C(=O)O)C(C)(C)CCC1 [ATRA]
[1]
  increase of HAS3 gene expression as compared with the situation when unstimulated: ≥ 3 ×

## TGF-β
[2]
  increase of elastin (ELN) gene expression as compared with the situation when unstimulated: ≥ 3 ×
[3]
  increase of COL1A1 gene expression as compared with the situation when unstimulated: ≥ 1.5 ×
